In assay [1] the target is T1, 5-LO (Homo sapiens, UniProt P09917).
T1 construct: incubating a test compound with heparinised human blood, prior to challenge with the calcium ionophore A23187; endogenous in cells; host or cells: human whole blood (blood cells), heparinised
T1 sequence (P09917 1-674): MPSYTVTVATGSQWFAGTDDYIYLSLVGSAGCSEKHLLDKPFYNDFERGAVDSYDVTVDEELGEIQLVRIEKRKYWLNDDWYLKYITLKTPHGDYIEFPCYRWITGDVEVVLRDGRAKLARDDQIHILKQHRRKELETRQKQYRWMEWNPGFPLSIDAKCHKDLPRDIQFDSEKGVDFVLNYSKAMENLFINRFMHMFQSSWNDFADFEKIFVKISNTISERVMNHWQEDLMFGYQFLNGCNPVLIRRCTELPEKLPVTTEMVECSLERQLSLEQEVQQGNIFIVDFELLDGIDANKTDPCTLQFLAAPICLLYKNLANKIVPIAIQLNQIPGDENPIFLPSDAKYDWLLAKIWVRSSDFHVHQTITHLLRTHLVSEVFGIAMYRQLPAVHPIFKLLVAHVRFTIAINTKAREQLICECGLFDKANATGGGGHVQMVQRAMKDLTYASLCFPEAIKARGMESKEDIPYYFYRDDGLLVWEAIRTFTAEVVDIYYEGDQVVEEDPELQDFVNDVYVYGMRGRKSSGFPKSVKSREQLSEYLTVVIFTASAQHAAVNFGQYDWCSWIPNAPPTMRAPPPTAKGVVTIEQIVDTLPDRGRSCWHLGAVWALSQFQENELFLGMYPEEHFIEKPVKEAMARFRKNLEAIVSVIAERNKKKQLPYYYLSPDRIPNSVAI
The assay can be described thus: Test a): in vitro heparinised human blood challenged with calcium ionophore A23187, radioimmunoassay of LTB₄. The class given is cell-based. The settings on record: heparinised human blood, A23187 challenge; read-out: IC₅₀ against LTB₄ in test a). An excerpt:
As stated previously, the compounds of the formula I are inhibitors of the enzyme 5-LO. […] J. Pharmacol., 1985, 84, 34P) which involve the use of a protein-LTB₄ conjugate produced using the procedure of Young et alia (Prostaglandins, 1983, 26(4), 605-613). The effects of a test compound on the enzyme cyclooxygenase (which is involved in the alternative metabolic pathway for arachidonic acid and gives rise to prostaglandins, thromboxanes and related metabolites) may be measured at the same time using the specific radioimmunoassay for thromboxane B₂(TxB₂) described by Carey and Forder (see above). This test provides an indication of the effects of a test compound against 5-LO and also cyclooxygenase in the presence of blood cells and proteins. It permits the selectivity of the inhibitory effect on 5-LO or cyclooxygenase to be assessed. • b) An ex vivo assay system, which is a variation of test a) above, involving administration to a group of rats of a test compound (usually orally as the suspension produced when a solution of the test compound in dimethylsulphoxide is added to carboxymethylcellulose), blood collection, heparinisation, challenge with A23187 and radioimmunoassay of LTB₄ and TxB₂. This test provides an indication of the bioavailability of a test compound as an inhibitor of 5-LO or cyclooxygenase. • c) An in vivo system involving measuring the effects of a test compound administered orally against the liberation of LTB₄ induced by zymosan within an air pouch generated within the subcutaneous tissue of the back of male rats. The rats are anaesthetised and air pouches are formed by the injection of sterile air (20 ml). A further injection of air (10 ml) is similarly given after 3 days. At 6 days after the initial air injection the test compound is administered (usually orally as the suspension produced when a solution of the test compound in dimethylsulphoxide is added to hydroxypropylmethylcellulose), followed by the intrapouch injection of zymosan (lml of a 1% suspension in physiological saline). […]

Assay [2] concerns 5-LO. The assay can be described thus: Test c): in vivo zymosan-induced LTB₄ liberation in a subcutaneous air pouch. Further details: species or system male rats. The settings on record: rats killed after 3 hours. An excerpt:
As stated previously, the compounds of the formula I are inhibitors of the enzyme 5-LO. […] J. Pharmacol., 1985, 84, 34P) which involve the use of a protein-LTB₄ conjugate produced using the procedure of Young et alia (Prostaglandins, 1983, 26(4), 605-613). The effects of a test compound on the enzyme cyclooxygenase (which is involved in the alternative metabolic pathway for arachidonic acid and gives rise to prostaglandins, thromboxanes and related metabolites) may be measured at the same time using the specific radioimmunoassay for thromboxane B₂(TxB₂) described by Carey and Forder (see above). This test provides an indication of the effects of a test compound against 5-LO and also cyclooxygenase in the presence of blood cells and proteins. It permits the selectivity of the inhibitory effect on 5-LO or cyclooxygenase to be assessed. • b) An ex vivo assay system, which is a variation of test a) above, involving administration to a group of rats of a test compound (usually orally as the suspension produced when a solution of the test compound in dimethylsulphoxide is added to carboxymethylcellulose), blood collection, heparinisation, challenge with A23187 and radioimmunoassay of LTB₄ and TxB₂. […]

Consider `COC1(c2cc(F)cc(Sc3ccc(C(C)ONC(C)=O)cc3)c2)CCOCC1` (stereo not drawn) [Example 2, 4-[5-fluoro-3-(4-methoxytetrahydropyran-4-yl)phenylthio]-α-methylbenzyl acetohydroxamate], for which, on 5-LO [1], the IC50 worked out at 190 nM.

In the case of `COC1(c2cc(F)cc(Sc3ccc(C(C)ONC(N)=O)cc3)c2)CCOCC1` (stereo not drawn) [Example 4, N-{4-[5-fluoro-3-(4-methoxytetrahydropyran-4-yl)phenylthio]-α-methylbenzyloxy}urea], the IC50 on 5-LO [1] amounted to 310 nM.

For the molecule `CCN(CC)OC(C)c1ccc(Sc2cc(F)cc(C3(OC)CCOCC3)c2)cc1` (stereo not drawn) [Example 5, N,N-diethyl-O-{4-[5-fluoro-3-(4-methoxytetrahydropyran-4-yl)phenylthio]-α-methylbenzyl}hydroxylamine], in the assay on 5-LO [2], the “oral ED₅₀ versus LTB₄ in test c)” value is given as “approximately 1.5 mg/kg”. In addition, the IC50 on 5-LO [1] came to 150 nM.

(Values after patent EP0570197A1, “Hydroxylamine derivatives” (ZENECA LIMITED, priority 1992, dated 1993).)
